Tests used:
Assay type in all cases: cell-based
B16 melanoma cells [1] = assay: Melanogenesis inhibition test (visual evaluation) using B16 melanoma cells; conditions: 3 days culture
Procedure: The following tests a) and b) were conducted on the compounds shown in Synthesis Examples and Comparative Synthesis Examples to examine their melanogenesis-inhibiting effects. • a) Cytotoxicity test (using B16 melonoma cells) • b) Melanogenesis inhibition test (visual evaluation) (using B16 melonoma cells) Evaluation Methods
8×10^4 B16 melanoma cells were inoculated in a plastic-made culture flask (25 cm^2). The cells were cultured in a 10% serum-containing DMEN medium (produced by Nissui Pharmaceutical co., Ltd., trade name) in the presence of 5% carbon dioxide at 37° C. 3 days later, a test sample diluted with ethanol was added thereto, and culture was conducted for 3 days. After the completion of the culture, the medium was removed and the flask contents were washed with a phosphate buffer solution (hereinafter referred t as PBS). The cells were peeled from the flask inner wall using a medium containing trypsin and EDTA (ethylenediaminetetraacetic acid). The resulting cells suspension was centrifuged to recover cells. Part of the cells was taken and the number of cells was measured using a Coulter counter. […] A melanogenesis inhibition test was carried out in this concentration range. The cells obtained were washed once with PBS and then the whiteness of the precipitate was rated visually based on the following evaluation standard.
Evaluation Standard • −: Same as the solvent control (black) • +−: Slightly different from the solvent control (black-gray) • +: Clearly different from the solvent control (gray) • ++: Coloring of cells is very low (gray-white) • +++: No coloring of cells (white)

[2] = system: tyrosinase biosynthesis in B16 melanoma cells; assay: Tyrosinase biosynthesis hindrance test (intra-cell tyrosinase activity); conditions: 2 days
Procedure: A tyrosinase activity hindrance test and a tyrosinase biosynthesis hindrance test were conducted according to the following test methods to examine the mechanism for hindrance of melanin denovo synthesis. […] In this method, tyrosinase biosynthesis hindrance is indicated indirectly by measuring intra-cell tyrosinase activity. 100 μl of a suspension containing 3×10^5/ml of B16 melanoma cells was inoculated into a 96-well plate, and culture was made at 37° C. overnight in 5% CO2. Next day, the medium was changed with 200 μl of a sample-containing culture medium, and culture was made for 2 days under the same conditions. Thereafter, the supernatant liquid was removed and the residue was washed with 200 μl of a phosphate buffer solution twice. Then, 100 μl of 1% Triton X100 was added and the mixture was allowed to stand at room temperature for 1 hour, followed by gentle shaking. Next, 100 μl of 1% DOPA was added. Measurement was made in the same manner as in the above test method for tyrosinase activity hindrance.

B16 melanoma cells [3] = assay: Cell propagation rate / cytotoxicity by MTT method on parallel plate

SMILES | whiteness of the cell precipitate rated visually (melanogenesis inhibition) (B16 melanoma cells [1]; Concentration 12.5 μg/ml) | further results
CCCCCCCCOCc1ccc2c(c1)OCO2 [Synthesis Example 9, Piperonyl n-octyl ether] | + | whiteness of the cell precipitate rated visually (melanogenesis inhibition) (B16 melanoma cells [1]; Concentration 6.3 μg/ml): +
CCOCc1ccc2c(c1)OCO2 [Synthesis Example 4, Piperonyl ethyl ether] | − | 
CC(C)COCc1ccc2c(c1)OCO2 [Synthesis Example 6, Piperonyl isobutyl ether] | ++ | 
CC(C)CCOCc1ccc2c(c1)OCO2 [Synthesis Example 7, Piperonyl isoamyl ether] | ++ | 
O=c1cc(CO)occ1O [kojic acid] |  | Tyrosinase biosynthesis hindrance, Hindrance % ([2]; 50 ppm): 21.0%; Tyrosinase biosynthesis hindrance, Hindrance % ([2]; 100 ppm): 21.0%; Tyrosinase biosynthesis hindrance, Hindrance % ([2]; 200 ppm): 21.0%; Cell propagation rate % (B16 melanoma cells [3]; 50 ppm): 100.8%; Cell propagation rate % (B16 melanoma cells [3]; 100 ppm): 97.3%; Cell propagation rate % (B16 melanoma cells [3]; 200 ppm): 96.2%
COCc1ccc2c(c1)OCO2 [Synthesis Example 3, Piperonyl methyl ether] | − | 
CCCCOCc1ccc2c(c1)OCO2 [Synthesis Example 2, piperonyl n-butyl ether] | ++ | 
CCCCCCOCc1ccc2c(c1)OCO2 [Synthesis Example 8, Piperonyl n-hexyl ether] | ++ | 
CCCOCc1ccc2c(c1)OCO2 [Synthesis Example 5, Piperonyl n-propyl ether] | + | 

From US7576125B2, “Melanogenesis inhibitor and skin preparation containing the same” (Takasago International Corporation, priority 2003, dated 2009)
